Results from article PMC9019100, “Development of NanoLuc-targeting protein degraders and a universal reporter system to benchmark tag-targeted degradation platforms” (Nature Communications, 2022).
Where “and” joins values, the source holds several entries; their conditions need not be identical. Equal values may be shown once. Read-outs that look alike come from different tables or passages of the source.

How the values were obtained:
[1] = target: T1, Halo-EGFP-NanoLuc-FKBP^F36V (H-E-N-F) fusion protein (UniProt P0A3G2+P62942+Q9GV45, A155T/A167V/A172T/A224E/A31E/A60N/A81I/C128F/C176G/D78G/E160K/E257K/F37V/F95D/H272N/I117V/K175M/K195N/K70R/L47V/L54V/L88M/L99Q/M102K/N193R/N227D/P142E/P291S/Q151K/Q38R/Q45L/S2A/S58T/T264A/V71I/Y165I/Y273L/Y87F); type: cell-based; details: +dox; for Blank corrected (470-80) luminescence: single well replicates; for Blank corrected Raw Data (470-80): PROTAC 500nM, replicate wells
Target sequence in this assay (Q9GV45 other isoform, or with tags, fused parts or gaps with the stated changes): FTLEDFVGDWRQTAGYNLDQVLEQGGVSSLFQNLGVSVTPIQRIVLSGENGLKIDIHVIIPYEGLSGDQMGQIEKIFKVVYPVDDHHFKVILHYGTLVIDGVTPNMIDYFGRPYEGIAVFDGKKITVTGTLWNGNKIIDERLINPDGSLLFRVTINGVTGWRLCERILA
Target sequence in this assay (P0A3G2 other isoform, or with tags, fused parts or gaps with the stated changes): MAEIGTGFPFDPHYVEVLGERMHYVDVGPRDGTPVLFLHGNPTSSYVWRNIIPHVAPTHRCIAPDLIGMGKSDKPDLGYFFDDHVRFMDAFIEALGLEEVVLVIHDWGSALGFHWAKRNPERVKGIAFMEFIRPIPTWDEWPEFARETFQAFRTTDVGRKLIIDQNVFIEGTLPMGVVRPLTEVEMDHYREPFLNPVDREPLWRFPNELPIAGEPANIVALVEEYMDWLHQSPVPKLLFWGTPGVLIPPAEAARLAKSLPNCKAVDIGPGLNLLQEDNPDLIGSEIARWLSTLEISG
Target sequence in this assay (P62942 whole entry F37V, the tested form may be a part): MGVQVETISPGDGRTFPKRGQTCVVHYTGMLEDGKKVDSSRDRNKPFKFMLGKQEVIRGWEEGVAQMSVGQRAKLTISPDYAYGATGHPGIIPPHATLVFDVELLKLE

[2] = test system: MLKL^−/−CASP8^−/− HT29 cells expressing MLKL-NLuc and caspase-8-FKBP^F36V; details: TNF+SM
[3] = test system: MLKL^−/− HT29 cells expressing untagged MLKL; type: cell-based; details: MLKL-/- + MLKL, TNF+911+zVAD, replicate columns
Experimental: (§1) Cell death was assessed by flow cytometric analysis of PI exclusion. […] Cell death was assessed by flow cytometric analysis of PI exclusion. […] Cell death was assessed by flow cytometric analysis of PI exclusion. e N = 4, f N = 3 independent experiments (symbols), EB represent mean ± SD. g Western from MLKL^−/−CASP8^−/− HT29 cells stably expressing the doxycycline-inducible C-terminal fusion protein, MLKL-NanoLuc (MLKL-NLuc) and constitutively expressing the C-terminal fusion protein caspase-8-FKBP^F36V. […] Cell death was assessed using an IncuCyte and Cytotox-Red uptake. N = 3 independent experiments, one representative experiment shown, EB represent mean ± SD.

[4] = target: T1, Halo-EGFP-NanoLuc-FKBP^F36V (H-E-N-F) fusion protein; type: cell-based; parameters: expressed in transfected cells; host or cells: immortalized mouse dermal fibroblasts (iMDFs), ubiquitin promoter, constitutive; details: 500 nM
Target sequence in this assay (P0A3G2 other isoform, or with tags, fused parts or gaps with the stated changes): as the sequence (P0A3G2 other isoform, or with tags, fused parts or gaps with the stated changes) above
Target sequence in this assay (Q9GV45 other isoform, or with tags, fused parts or gaps with the stated changes): as the sequence (Q9GV45 other isoform, or with tags, fused parts or gaps with the stated changes) above
Target sequence in this assay (P62942 whole entry F37V, the tested form may be a part): as the sequence (P62942 whole entry F37V, the tested form may be a part) above

[5] = test system: MLKL^−/− HT29 cells expressing MLKL-FKBP^F36V; type: cell-based; details: for TNF+911+zVAD (PI exclusion): MLKL-/- + MLKL FKBPF36V, replicate columns
Experimental: as §1

wild-type HT29 cells = assay: Necroptosis assay (PI exclusion, flow cytometry), wild-type HT29 cells, TNF+SM+IDN; type: cell-based, human; details: sheet S5G
Experimental: To simulate necroptosis, cells were seeded into 96-well plates ±40 ng/mL doxycycline, to induce construct expression, and treated with 100 ng/mL FLAG-TNF (recombinant human, in-house), 500 nM compound A Smac mimetic (kindly gifted by TetraLogics Pharmaceuticals) and 5 μM IDN-6556 (Cayman) or 10 uM Z-VAD-fmk (Selleckchem) overnight (16–24 h). Degrader compounds or a DMSO vehicle control were added for 5 h, as stated in the Fig. legends. Cells were detached using Trypsin-EDTA (Merck) and resuspended in cell supernatants containing 10 μg/mL propidium iodide (PI). PI exclusion analysis was performed using an LSR II flow cytometer (Becton Dickinson, NJ) with 10,000 single-cell events per sample. Flow cytometry data were analysed using WEASEL version 2.7 software (Frank Battye).
Supplementary Figure 5. […]
NC4. Data are representative of N = 3 independent experiments. f-h. HT29 cells were stimulated with DMSO (control) or 500 nM of degrader for 5 hours before the addition of TNF (100 ng/mL) + Smac mimetic (compound A; 500 nM-1 µM) + caspase inhibitor; Emricasan (IDN) (5 µM), for 24 hours. Cell death was assessed by flow cytometric analysis of PI exclusion. N = 3 replicates (symbols) is shown, EB; mean ± SD. Data are representative of N = 3 independent experiments. i. Representative flow cytometry gating strategy. Source data are provided as a Source Data file.

CC[C@H](C(=O)N1CCCC[C@H]1C(=O)O[C@H](CCc1ccc(OC)c(OC)c1)c1ccccc1OCC(=O)NCCCCCCC(=O)N[C@H](C(=O)N1C[C@H](O)C[C@H]1C(=O)N[C@@H](C)c1ccc(-c2scnc2C)cc1)C(C)(C)C)c1cc(OC)c(OC)c(OC)c1 [FV1]
Blank corrected (470-80) luminescence ([1]; 3.9nM PROTAC): 31936 and 32480 and 32608 and 31981 | Blank corrected (470-80) luminescence ([1]; 7.8nM PROTAC): 24693 and 21134 and 25624 and 20591 | Blank corrected (470-80) luminescence ([1]; 31.25nM PROTAC): 9757 and 8948 and 8891 and 8313 | Blank corrected (470-80) luminescence ([1]; 62.5nM PROTAC): 5245 and 5647 and 5355 and 5575 | Blank corrected (470-80) luminescence ([1]; 250nM PROTAC): 2257 and 3039 and 2286 and 2469 | Blank corrected (470-80) luminescence ([1]; 500nM PROTAC, 5h): 3865 and 3357 and 3449 and 3849 | Blank corrected (470-80) luminescence ([1]; 500nM PROTAC, 8h): 4070 and 3846 and 4184 and 2817 | Blank corrected (470-80) luminescence ([1]; 500nM PROTAC, 24h): 5571 and 3433 and 4739 | Blank corrected (470-80) luminescence ([1]; 500nM PROTAC): 1404 and 1634 and 1510 and 1568 | Blank corrected (470-80) luminescence ([1]; 1uM PROTAC): 1692 and 1683 and 1666 and 1785 | Blank corrected Raw Data (470-80) ([1]; DMSO (control) co-treatment): 1481 and 2747 and 2028 | Blank corrected Raw Data (470-80) ([1]; co-treatment with MG132 (10uM)): 32421 and 46504 and 47437 and 52425 | Cytotox-Red uptake (cell death), IncuCyte ([2]; elapsed 0 h): 162.812 | Cytotox-Red uptake (cell death), IncuCyte ([2]; elapsed 0.5 h): 163.75 | Cytotox-Red uptake (cell death), IncuCyte ([2]; elapsed 1 h): 172.188 | Cytotox-Red uptake (cell death), IncuCyte ([2]; elapsed 2 h): 261.562 | Cytotox-Red uptake (cell death), IncuCyte ([2]; elapsed 3 h): 541.625 | Cytotox-Red uptake (cell death), IncuCyte ([2]; elapsed 4 h): 907.75 | Cytotox-Red uptake (cell death), IncuCyte ([2]; elapsed 5 h): 1277 | Cytotox-Red uptake (cell death), IncuCyte ([2]; elapsed 6 h): 1576.88 | Cytotox-Red uptake (cell death), IncuCyte ([2]; elapsed 6.5 h): 1701.5 | Cytotox-Red uptake (cell death), IncuCyte ([2]; elapsed 7 h): 1872.81 | Cytotox-Red uptake (cell death), IncuCyte ([2]; elapsed 7.5 h): 1974.44 | Cytotox-Red uptake (cell death), IncuCyte ([2]; elapsed 8 h): 2103.31 | Cytotox-Red uptake (cell death), IncuCyte ([2]; elapsed 9 h): 2328 | Cytotox-Red uptake (cell death), IncuCyte ([2]; elapsed 9.5 h): 2410.25 | Cytotox-Red uptake (cell death), IncuCyte ([2]; elapsed 10 h): 2505.44 | Cytotox-Red uptake (cell death), IncuCyte ([2]; elapsed 10.5 h): 2578.38 | Cytotox-Red uptake (cell death), IncuCyte ([2]; elapsed 11 h): 2647 | Cytotox-Red uptake (cell death), IncuCyte ([2]; elapsed 12 h): 2777.19 | Cytotox-Red uptake (cell death), IncuCyte ([2]; elapsed 13 h): 2864.25 | Cytotox-Red uptake (cell death), IncuCyte ([2]; elapsed 13.5 h): 3026.81 | Cytotox-Red uptake (cell death), IncuCyte ([2]; elapsed 14 h): 2985.5 | Cytotox-Red uptake (cell death), IncuCyte ([2]; elapsed 14.5 h): 2992.62 | Cytotox-Red uptake (cell death), IncuCyte ([2]; elapsed 15 h): 3009.12 | Cytotox-Red uptake (cell death), IncuCyte ([2]; elapsed 16 h): 3103.38 | Cytotox-Red uptake (cell death), IncuCyte ([2]; elapsed 17 h): 3055.31 | Cytotox-Red uptake (cell death), IncuCyte ([2]; elapsed 18 h): 3042.38 | Cytotox-Red uptake (cell death), IncuCyte ([2]; elapsed 19 h): 3048.56 | Cytotox-Red uptake (cell death), IncuCyte ([2]; elapsed 19.5 h): 3013.69 | TNF+911+zVAD (PI exclusion) ([3]; degrader 3.9nM): 5.8 and 7 and 7.6 | TNF+911+zVAD (PI exclusion) ([3]; degrader 7.8nM): 6.7 and 5.9 and 5.7 | TNF+911+zVAD (PI exclusion) ([3]; degrader 31.25nM): 5.8 and 6 and 5.7 | TNF+911+zVAD (PI exclusion) ([3]; degrader 62.5nM): 6.1 and 6.6 and 5.2 | TNF+911+zVAD (PI exclusion) ([3]; degrader 250nM): 6.3 and 5.6 and 5.3 | TNF+911+zVAD (PI exclusion) ([3]; degrader 500nM): 5.9 and 5.1 and 4.5 | TNF+911+zVAD (PI exclusion) ([3]; degrader 1000nM): 5.8 and 4.9 and 5 | time up to which degradation was seen, degrader left in the medium ([4]; 5, 24 or 48 h): up to 48 h | time up to which degradation was maintained, degrader removed at 5 h ([4]; 24 or 48 h after removal): up to 48 h | concentration sustaining cell survival over 24 h ([5]; 5 h pre-treatment, then TSZ 24 h): 3.9 nM | TNF+911+zVAD (PI exclusion) ([5]; degrader 3.9nM): 77.6 and 82.1 and 75.3 | TNF+911+zVAD (PI exclusion) ([5]; degrader 7.8nM): 84.5 and 86.7 and 79.8 | TNF+911+zVAD (PI exclusion) ([5]; degrader 31.25nM): 80.9 and 86.7 and 82.1 | TNF+911+zVAD (PI exclusion) ([5]; degrader 62.5nM): 79.4 and 87 and 83.1 | TNF+911+zVAD (PI exclusion) ([5]; degrader 250nM): 80.6 and 84.5 and 80.8 | TNF+911+zVAD (PI exclusion) ([5]; degrader 500nM): 69.7 and 81.6 and 78.5 | TNF+911+zVAD (PI exclusion) ([5]; degrader 1000nM): 63.8 and 77.3 and 74.7 | viable cells (PI exclusion) (wild-type HT29 cells; TNF+SM+IDN): 9.5 and 6.6 and 6.1 | viable cells (PI exclusion) (wild-type HT29 cells; Unt (no death stimulus)): 76.3 and 74.4 and 69.6
